Measurements published in ChEMBL document CHEMBL1158453 (J Med Chem, 2009).

Legend:
[1] = Chemical stability in 50 mM acetate buffer at pH 4.0 at 37 degC assessed as compound degradation to metformin after 4 weeks by HPLC; type: physicochemical; conditions: read-out: Activity
[2] = Chemical stability in 50 mM HCl buffer at pH 1.0 at 37 degC assessed as half life by HPLC; type: physicochemical
Rattus norvegicus [3] = test: Cmax in Wistar rat plasma assessed as metformin level at 67 mg/kg, iv; type: ADME, organism-based; design: dose 67 mg/kg, route intravenous; conditions: in vivo
[4] = Metabolic stability in 20% rat liver homogenate assessed as compound degradation to metformin after 24 hrs by HPLC; type: ADME, tissue-based; conditions: 20% liver homogenate, read-out: Activity
Rattus norvegicus [5] = test: Oral bioavailability in Wistar rat assessed as metformin level at 100 mg/kg; type: ADME, organism-based; conditions: in vivo
Rattus norvegicus [6] = test: AUC (0 to infinity) in Wistar rat plasma assessed as metformin level at 100 mg/kg, po; type: ADME, organism-based; design: time infinity, dose 100 mg/kg, route oral; conditions: in vivo
[7] = Octanol-water distribution coefficient, log D at pH 7.4 by HPLC; type: physicochemical
Rattus norvegicus [8] = test: Tmax in Wistar rat plasma assessed as metformin level at 67 mg/kg, iv; type: ADME, organism-based; design: dose 67 mg/kg, route intravenous; conditions: in vivo
Rattus norvegicus [9] = test: Cmax in Wistar rat plasma assessed as metformin level at 100 mg/kg, po; type: ADME, organism-based; design: dose 100 mg/kg, route oral; conditions: in vivo
[10] = Metabolic stability in human serum assessed as compound degradation to metformin after 24 hrs by HPLC; type: ADME, cell-free; conditions: read-out: Activity
Rattus norvegicus [11] = test: AUC (0 to infinity) in Wistar rat plasma assessed as metformin level at 67 mg/kg, iv; type: ADME, organism-based; design: time infinity, dose 67 mg/kg, route intravenous; conditions: in vivo
Rattus norvegicus [12] = test: Tmax in Wistar rat plasma assessed as metformin level at 100 mg/kg, po; type: ADME, organism-based; design: dose 100 mg/kg, route oral; conditions: in vivo
[13] = Chemical stability in 50 mM borate buffer at pH 9.0 at 37 degC assessed as compound degradation to metformin after 4 weeks by HPLC; type: physicochemical; conditions: read-out: Activity
[14] = Metabolic stability in rat serum assessed as compound degradation to metformin after 24 hrs by HPLC; type: ADME, cell-free; conditions: read-out: Activity
[15] = Octanol-water distribution coefficient, log D at pH 4 by HPLC; type: physicochemical
[16] = Chemical stability in 50 mM phosphate buffer at pH 7.4 at 37 degC assessed as compound degradation to metformin after 4 weeks by HPLC; type: physicochemical; conditions: read-out: Activity
[17] = Chemical stability in 15 mM hydrogen peroxide solution at pH 7.4 at 37 degC assessed as half life by HPLC; type: physicochemical
[18] = Metabolic stability in rat serum assessed as half life by HPLC; type: ADME, cell-free
[19] = Metabolic stability in 20% rat liver homogenate assessed as half life by HPLC; type: ADME, tissue-based; conditions: 20% liver homogenate
[20] = Chemical stability in 50 mM borate buffer at pH 9.0 at 37 degC assessed as half life by HPLC; type: physicochemical
[21] = Chemical stability in 50 mM acetate buffer at pH 4.0 at 37 degC assessed as half life by HPLC; type: physicochemical
[22] = Chemical stability in 50 mM phosphate buffer at pH 7.4 at 37 degC assessed as half life by HPLC; type: physicochemical
Serum = test: Metabolic stability in human serum assessed as half life by HPLC; type: ADME, cell-free
in vivo [23] = conditions: Wistar, rat, plasma, po, 140 mg/kg
Description: AUC (0 to infinity) in Wistar rat plasma at 140 mg/kg, po

Rattus norvegicus [24] = test: AUC (0 to infinity) in Wistar rat plasma at 35 mg/kg, iv; type: ADME, organism-based; design: time infinity, dose 35 mg/kg, route intravenous; conditions: in vivo
[25] = Cmax in Wistar rat plasma at 35 mg/kg, iv; type: ADME, organism-based; design: dose 35 mg/kg, route intravenous
in vivo [26] = conditions: Wistar, rat, plasma, po, 140 mg/kg; remark: listed apart in the source
Description: Tmax in Wistar rat plasma at 140 mg/kg, po

in vivo [27] = conditions: Wistar, rat, plasma, po, 140 mg/kg; remark: listed apart in the source
Description: Cmax in Wistar rat plasma at 140 mg/kg, po

[28] = Tmax in Wistar rat plasma at 35 mg/kg, iv; type: ADME, organism-based; design: dose 35 mg/kg, route intravenous

For CN(C)C(=N)/N=C(\N)NSC1CCCCC1, which degraded at 672 h [1] is on record?
Its degraded at 672 h is 10%.

And the half-life [2]?
The half-life was 478 min.

And the Cmax (Rattus norvegicus [3])?
Its Cmax is 3 µg/mL.

What about the metabolised at 24 h [4] of the same molecule?
Its metabolised at 24 h is 10%.

And the F (Rattus norvegicus [5])?
The F was 64.5%.

And the AUC (Rattus norvegicus [6])?
Its AUC is 275 µg·min/mL.

What about the logD [7] of the same molecule?
Its logD is 0.49.

What about the Tmax (Rattus norvegicus [8]) of the same molecule?
Its Tmax is 10 min.

And the Cmax (Rattus norvegicus [9])?
The Cmax was 1.3 µg/mL.

And the metabolised at 24 h [10]?
The metabolised at 24 h was 10%.

What about the AUC (Rattus norvegicus [11]) of the same molecule?
Its AUC is 291 µg·min/mL.

What about the Tmax (Rattus norvegicus [12]) of the same molecule?
The Tmax was 60 min.

And the degraded at 672 h [13]?
The degraded at 672 h was 40%.

What about the metabolised at 24 h [14] of the same molecule?
The metabolised at 24 h was 10%.

What about the logD [15] of the same molecule?
The logD was -1.1.

What about the degraded at 672 h [16] of the same molecule?
Its degraded at 672 h is 10%.

And the half-life [17]?
The half-life was 35.8 min.

Which half-life [2] does the source give for CN(C)C(=N)/N=C(\N)NSc1ccccc1 here?
The half-life was 12.1 min.

And the half-life [18]?
The half-life was 36.8 min.

And the half-life [19]?
The half-life was 0.25 min.

And the half-life [20]?
Its half-life is 18.1 min.

And the logD [7]?
Its logD is -0.76.

And the half-life [21]?
Its half-life is 3.27 days.

And the half-life [22]?
The half-life was 3.27 days.

What about the logD [15] of the same molecule?
The logD was -0.7.

What about the half-life [17] of the same molecule?
Its half-life is 14.2 min.

What about the t1/2 (Serum) of the same molecule?
Its t1/2 is 3.74 s.

Which results are given for CN(C)C(=N)N=C(N)N [METFORMIN]?
AUC(0-inf) (in vivo [23]): 4820 ng·h/mL; AUC (Rattus norvegicus [24]): 170 µg·min/mL; Cmax [25]: 20900 ng/mL; Tmax (in vivo [26]): 50 min; Cmax (in vivo [27]): 1700 ng/mL; Tmax [28]: 1 min
